Marks after values point to notes of the source that are not given here.
Assays:
Assay type in all cases: in vivo
swine [1] = assay: 2002 swine feed test: 24 hour raw pork loin quality; parameters: Marbling / Fat Firmness / Color Score: scale not given here
Description: (§1) Applicants conducted a second swine feeding trial to further determine the effects on meat quality of supplementation of a swine diet with alpha-tocopherol (AT), gamma-tocopherol (GT) or mixed tocotrienols (MT). Seventy-two barrows (˜75 lbs.) were transported to the Pioneer Livestock Nutrition Center (PLNC) and randomly placed into individual pens with water and feed provided ad libitum. The pigs received a common diet for seven days. On the eighth day the pigs were weighed individually and a uniform group of sixty pigs with an average body weight of about 75 pounds was selected. The pigs were randomly assigned one of five dietary treatments with 12 pigs per treatment. The feeding trial was initiated on Mar. 12, 2002 and ended on Jun. 19, 2002.
(§2) The pigs were fed a corn-soybean meal diet formulated to provide adequate levels of all nutrients. In addition, one of five dietary treatments was assigned to each group: control, 300 ppm AT, 450 ppm GT, 150 ppm MT, and 300 ppm MT. To each diet a corn oil premix and a ground corn premix were added with the corn oil premix as a carrier for the supplemental tocopherols and the ground corn premix as the carrier for the MT. The MT supplement was obtained commercially from Fuji Chemical Industries (U.S.A.) Inc. of Robbinsville, N.J., and contained 7.5% alpha-, 12.3% gamma- and 3.0% delta-tocotrienol, as well as 7.2% alpha-tocopherol.
The pigs were harvested in June 2002 when they had reached an average weight of about 245 pounds. Following a twelve-hour feed withdrawal, the pigs were transported to a commercial processing facility. At the commercial processing facility, individual hot carcass weight, back fat depth and loin depth were measured and recorded on the day of slaughter. Loin pH, loin color value (Minolta L*), Marbling and fat firmness were recorded 24 hours post mortem.

chickens = assay: 2002 poultry feed test: TBARS content of cooked ground chicken thighs; conditions: 300 ppm in diet
Description: Applicants also assessed the effects of antioxidant supplementation on meat quality in an experiment in which meat from chickens fed one of four dietary treatments was compared. On Jul. 25, 2002, day-old chicks were obtained from a commercial company. The birds were housed in a brooder until Aug. 11, 2002. On Aug. 11, forty-eight birds were randomly allocated to one of four pens (twelve birds per pen). Birds in each pen were offered ad libitum access to one of four treatment diets: control, 300 ppm AT, 300 ppm GT or 150 ppm MT. The MT premix contained a commercially available MT supplement (7.5% alpha-, 12.3% gamma- and 3.0% delta-tocotrienol and 7.2% alpha-tocopherol) mixed with ground corn as the carrier. The total MT premix (ground corn plus MT supplement) represented 2.5% w/w of the finished MT supplemented feed.
On Sep. 13, 2002 (seven weeks of age) the birds were harvested, identified and frozen at −20C. The birds were stored frozen at −20C for 136-159 days post slaughter. On days 136, 156, 157, 158 and 159 (where available) two birds per dietary treatment were thawed in cold water. Meat was removed from the breasts (pectoralis major muscles) and thighs. Breast meat from each chicken was ground through a 3 mm disc in a Krups Butcher Shop 150W Professional Power Meat Grinder. Thigh meat from two chickens was combined (for days 156, 157, 158 and 159; day 136 thigh meat was kept separate for each bird) and ground in a similar manner. Patties were made (10 g for breast; 60 g for thighs) using a 100×15 mm Petri dish as a mold.
Raw ground chicken breast and thigh patties were cooked in a pre-warmed George Foreman grill for five minutes per breast patty and four minutes per thigh patty. Cooked patties were allowed to cool under refrigeration and then quartered (day 136) or halved (days 156, 157, 158 and 159). Each quarter or half was stored at 2.2C in zip lock baggies for a designated period of time. One quarter was used per sampling period. Sampling periods were 0 hours, 4 hours, 26 hours and 48 hours. Thiobarbituric acid reacting substances (TBARS) analyses was performed according to Ahn et al., and the results are shown in the following two tables.

swine [2] = assay: 2002 swine feed test: 21-day raw pork loin quality measurements; parameters: key to Hunter a: Hunter a; more positive = redder; key to Hunter b: Hunter b; more positive = more yellow; Hunter a* / Hunter b*: scale not given here; conditions: for Chop purge, % / Cooking Loss, %: 21-day pork loin; for Hunter L / Hunter L* / Hunter a / Hunter a* / Hunter b / Hunter b* / Loin pH / Loin purge, %: 21-day raw pork loin; for Instron force, kg: force to pierce loin chop
Description: as §1, §2
Approximately twenty-one days after slaughter the loins were removed from vacuum bags and weighed. The liquid that had accumulated in the bags during storage was measured to calculate 21-day purge. Loin pH was measured at three locations by carefully inserting a glass probe into the mid-point of the anterior, mid and posterior thirds of each loin. As expected, measurement location (blade, chop or shoulder) affected loin pH, Hunter L, L* and a* values.
The Hunter L, a and b values were measured with a Hunter laboratory system for color evaluation. Hunter L is a measurement of the lightness of an object, and may be thought of as the light reflectance from the surface of an object. Thus, a higher Hunter L value indicates a lighter color, and an L value of 100 would indicate prefect reflectance from the surface. (The white standard has an L value of 97.21.) An increasingly positive Hunter a value indicates a redder color, and an increasingly positive Hunter b value indicates a more yellow color.

Cc1c(O)cc2c(c1C)O[C@](C)(CCC[C@H](C)CCC[C@H](C)CCCC(C)C)CC2 [GT, gamma-tocopherol]
Color Score (swine [1]; 450 ppm in diet): 3.1 | Fat Firmness (swine [1]; 450 ppm in diet): 2.0 | Hunter L* (swine [1]; 450 ppm in diet): 48.81 | Marbling (swine [1]; 450 ppm in diet): 1.9 | TBARS content (chickens; 0 hours at 2.2C): 0.4839^b mg Malonaldehyde/kg sample | TBARS content (chickens; 4 hours at 2.2C): 0.6715^d mg Malonaldehyde/kg sample | TBARS content (chickens; 26 hours at 2.2C): 1.2515^d mg Malonaldehyde/kg sample | TBARS content (chickens; 48 hours at 2.2C): 1.6312^d mg Malonaldehyde/kg sample | Chop purge, % (swine [2]; 450 ppm in diet): 2.40% | Cooking Loss, % (swine [2]; 450 ppm in diet): 20.27% | Hunter L (swine [2]; 450 ppm in diet): 45.47 | Hunter L* (swine [2]; 450 ppm in diet): 52.53 | Hunter a (swine [2]; 450 ppm in diet): 6.00 | Hunter a* (swine [2]; 450 ppm in diet): 7.14 | Hunter b (swine [2]; 450 ppm in diet): 8.41 | Hunter b* (swine [2]; 450 ppm in diet): 15.61 | Loin pH (swine [2]; 450 ppm in diet): 5.67 | Loin purge, % (swine [2]; 450 ppm in diet): 1.16% | Instron force, kg (swine [2]; 450 ppm in diet): 5.53^a kg

Cc1c(C)c2c(c(C)c1O)CC[C@@](C)(CCC[C@H](C)CCC[C@H](C)CCCC(C)C)O2 [AT, alpha-tocopherol]
Color Score (swine [1]; 300 ppm in diet): 3.2 | Fat Firmness (swine [1]; 300 ppm in diet): 2.3 | Hunter L* (swine [1]; 300 ppm in diet): 48.89 | Marbling (swine [1]; 300 ppm in diet): 2.1 | TBARS content (chickens; 0 hours at 2.2C): 0.4568^b mg Malonaldehyde/kg sample | TBARS content (chickens; 4 hours at 2.2C): 0.8954^d mg Malonaldehyde/kg sample | TBARS content (chickens; 26 hours at 2.2C): 0.8968^d mg Malonaldehyde/kg sample | TBARS content (chickens; 48 hours at 2.2C): 1.1669^d mg Malonaldehyde/kg sample | Chop purge, % (swine [2]; 300 ppm in diet): 1.97% | Cooking Loss, % (swine [2]; 300 ppm in diet): 20.11% | Hunter L (swine [2]; 300 ppm in diet): 46.68 | Hunter L* (swine [2]; 300 ppm in diet): 53.86 | Hunter a (swine [2]; 300 ppm in diet): 5.71 | Hunter a* (swine [2]; 300 ppm in diet): 6.76 | Hunter b (swine [2]; 300 ppm in diet): 8.60 | Hunter b* (swine [2]; 300 ppm in diet): 15.77 | Loin pH (swine [2]; 300 ppm in diet): 5.66 | Loin purge, % (swine [2]; 300 ppm in diet): 0.99% | Instron force, kg (swine [2]; 300 ppm in diet): 4.98^b kg

From patent publication US20040266862A1, “Method of improving animal tissue quality by supplementing the animal diet with mixed tocotrienols” (priority 2003, published 2004)
